# Source: article PMC8391236, “Effect of Pterostilbene, a Natural Derivative of Resveratrol, in the Treatment of Colorectal Cancer through Top1/Tdp1-Mediated DNA Repair Pathway” (Cancers, 2021)
# What was measured:
# [1] = system: Top1; assay: Western blot of Top1 protein in cells; type: cell-based, Human; conditions: 6 h
# Protocol: CL187 cells were treated with RE or PTE for 6 or 12 h, collected, and placed into lysis buffer (KeyGEN BioTECH, Nanjing, China). The total protein content in the cell lysates was measured using a BCA kit. Equivalent amount of total protein (30 μg) was loaded onto 10% SDS-PAGE gel. Electrophoresis was performed at 80 V for 25 min. After the sample went through concentrated gel, the voltage was adjusted to 120 V. Electrophoresis was stopped when the bromophenol blue band approached the bottom of the gel. After being transferred to PVDF membranes, the samples were incubated separately with 3 types of primary antibodies Top1, Tdp1, and P53 rabbit mAb (CST, Boston, MA, USA), followed by the incubation with secondary antibody goat anti-rabbit IgG (HRP)-conjugated (1:3000). ECL kit (New Cell and Molecular Biotech, Suzhou, China) was used for color development, and the images were collected by the gel imaging system (Tanon-5200, Shanghai, China).
# [2] = system: Tdp1-over CL187 cells; assay: Cell viability of Tdp1-overexpressing cells; type: cell-based, Human
# Protocol: CL187 cells were cultured on 6-cm dishes at 37 °C for 24 h. The plasmid (2.5 μg) was diluted with 125 μL serum-free medium Opti-MEM, mixed gently, and incubated at room temperature for 5 min. Lipo 3000 (Invitrogen, Waltham, MA, USA) were diluted with 125 μL serum-free medium Opti-MEM, mixed and incubated for 5 min. Mixed the plasmid and Lipo 3000, incubated at room temperature for 20 min, the mixture was added to CL187 cells, the Tdp1 overexpressed plasmid were transfected into CL187 cells.
# PTE or RE were dissolved in DMSO and diluted with culture medium to 1–100 μM. The final concentration of DMSO was less than 0.1%, and 0.1% DMSO as negative control. CPT, as Top1 inhibitor, was diluted to 0.5 μM [36, 37], and FM, as Tdp1 inhibitor was diluted to 25 μM [38]. Exponentially growing cells were seeded in 96-well plates (5 × 10^3 cells/well) for 12 h. […] Cell viability was determined by CCK-8 (Beyotime Biotechnology, Shanghai, China) assay. Cell viability and inhibition rate were calculated with the following formulae:Cell viability (%) = [OD450 (sample)/OD450 (control)] × 100(1) Inhibition rate (%) = […] − cell viability (%)(2)
# The drug concentration required for inhibiting cell proliferation by 50% (IC50) was determined by interpolation from dose-response curves.
# [3] = system: Tdp1 mRNA; assay: qPCR of Tdp1 mRNA in cells; type: cell-based, Human; conditions: 6 h
# Protocol: CL187 cells were treated with different concentrations of RE and PTE for 6, 12, 24 h, collected, and added with TRIzol (Thermo Fisher Scientific, Waltham, MA, USA). RNA was precipitated by isopropyl alcohol and washed with 75% ethanol prepared from diethylpyrocarbonate (DEPC) water. The obtained total RNA was dissolved in DEPC water and reverse transcribed into cDNA by a Hifair Ⅲ 1st strand cDNA Synthesis SuperMix for qPCR Kit (Yeasen Biotech, Shanghai, China). The resultant cDNA was used as a template, and the primer sequences were (5′→3′): Top1: F: […], R: […]; Tdp1: F: ACCAGAGTTCAGGAAGAAG, R: TCATAGAGCAGCAGCATC. GAPDH: F: […], R: TCTTCCTCTTGTGCTCTTG. Transcription levels of Top1, Tdp1, and GAPDH genes were determined by qPCR. The qPCR was performed as follows: 95 °C for 10 min, 40 cycles of 95 °C for 10 s, and 60 °C for 30 s. The cycle threshold (Ct) value was determined, and the RQ value was calculated.
# [4] = biological target: Top1 in CL187 cells (Homo sapiens, UniProt P11387); assay: Intracellular Top1 enzyme activity assay; type: cell-based; design: endogenous in cells; host or cells: CL187 cells (nuclear, mitochondrial and cytoplasmic extracts); conditions: CL187 cells treated 6 h; CPT at 50 μM
# Chain of Top1 in CL187 cells (P11387 2-765): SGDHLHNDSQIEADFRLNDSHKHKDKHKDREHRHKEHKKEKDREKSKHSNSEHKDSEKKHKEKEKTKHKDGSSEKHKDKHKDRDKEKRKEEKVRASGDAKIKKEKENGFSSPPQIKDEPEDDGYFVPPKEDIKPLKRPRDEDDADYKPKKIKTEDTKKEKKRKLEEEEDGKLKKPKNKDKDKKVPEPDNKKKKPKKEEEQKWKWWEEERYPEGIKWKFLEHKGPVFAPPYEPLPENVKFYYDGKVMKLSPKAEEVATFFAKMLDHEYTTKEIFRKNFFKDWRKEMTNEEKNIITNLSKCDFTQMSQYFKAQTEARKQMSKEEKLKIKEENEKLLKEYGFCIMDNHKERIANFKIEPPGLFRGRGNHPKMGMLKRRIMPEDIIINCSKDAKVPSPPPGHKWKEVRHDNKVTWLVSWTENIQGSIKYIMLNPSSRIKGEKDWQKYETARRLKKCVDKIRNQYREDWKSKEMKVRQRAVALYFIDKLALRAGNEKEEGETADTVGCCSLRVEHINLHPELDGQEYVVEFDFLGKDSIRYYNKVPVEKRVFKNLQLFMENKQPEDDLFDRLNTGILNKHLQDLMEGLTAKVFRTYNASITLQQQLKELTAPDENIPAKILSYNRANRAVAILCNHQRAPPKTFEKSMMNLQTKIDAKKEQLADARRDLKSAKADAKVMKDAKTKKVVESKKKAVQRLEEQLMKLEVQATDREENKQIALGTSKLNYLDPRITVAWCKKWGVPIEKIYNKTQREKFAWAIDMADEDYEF
# Protocol: CL187 cells were treated with different concentrations of drugs for 6 h. The supernatant was discarded, and the cells were collected. The extracts of cytoplasm, mitochondria, and nucleus were obtained by the same method as described in Section 2.4.7. The protein concentration of each extract was detected by BCA kit. Enzyme activity reaction was carried out by using 125 ng super helical DNA (pHOT-1) and cell extract. The protein concentration of the extract was guaranteed to be the same in each group. The mixture solution of the pHOT-1 and the cell extract was added into the reaction buffer and incubated for 30 min at 37 °C. The reaction was terminated with loading buffer. The agarose gel electrophoresis was performed, and the images were collected.
# [5] = system: siRNA-Tdp1 CL187 cells; assay: Cell viability of Tdp1-silenced cells; type: cell-based; conditions: Homo sapiens, 36 h, siRNA-Tdp1 CL187, 36 h
# [6] = system: CL187 cells; assay: Apoptosis by flow cytometry (Annexin V-FITC/PI); type: cell-based, Human; conditions: 48 h
# Protocol: Exponentially growing CL187 cells were seeded in 6-well plates (1.2 × 10^6 cells/well) until a well was filled with cells. The RE or PTE at various concentrations were added separately into plate wells and incubated with cells for 48 h. The incubated cells were collected and treated by Annexin V-FITC/PI Apoptosis Detection Kit. The stained cells were analyzed with a flow cytometer (Becton-Dickinson, Franklin Lakes, NJ, USA), and data analyses were performed with BD Cell Quest^TM pro 6.0..
# [7] = system: CL187 cells; assay: Cell cycle analysis by flow cytometry; type: cell-based, Human; conditions: 48 h, blank control 14.70%
# [8] = system: siRNA-Top1 CL187 cells; assay: Cell viability of Top1-silenced cells; type: cell-based; conditions: Homo sapiens, 36 h, siRNA-Top1 CL187, 36 h
compound,measurement,setting,value
"COc1cc(/C=C/c2ccc(O)cc2)cc(OC)c1 [PTE, 3,5-dimethoxy-4′-hydroxy-trans-stilbene]",Top1 protein content,[1]; Tdp1-over CL187 cells,reduced in dese-dependent manner
same,Top1 protein content,[1]; siRNA-Tdp1 CL187 cells,significantly decreased
same,Top1 protein content,[1]; wild-type CL187 cells,"decreased in PTE treatment group, but neither in dese-dependent and significant manner"
same,IC50,"[2]; Homo sapiens, 24 h, Tdp1-over CL187, 24 h",63 ± 13.6 µM
same,IC50,"[2]; Homo sapiens, 36 h, Tdp1-over CL187, 36 h",41.1 ± 7.22 µM
same,IC50,"[2]; Homo sapiens, 48 h, Tdp1-over CL187, 48 h",20.3 ± 3.13 µM
same,IC50,"[2]; Homo sapiens, 72 h, Tdp1-over CL187, 72 h",19.1 ± 4.08 µM
same,IC50,"[2]; Tdp1-over CL187, 72 h",~20 µM
same,Tdp1 mRNA expression,[3]; Tdp1-over CL187 cells,did not change significantly
same,Tdp1 mRNA expression,[3]; siRNA-Top1 CL187 cells,inhibited without obvious trend
same,Tdp1 mRNA expression,[3]; wild-type CL187 cells,significantly inhibited
same,Top1 enzyme activity in the nucleus,[4],significantly inhibited
same,IC50,[5],34.2 ± 7.33 µM
same,apoptosis rate (early and late apoptotic cells),"[6]; CL187, 10 μM",28.95%
same,apoptosis rate (early and late apoptotic cells),"[6]; CL187, 20 μM",29.69%
same,apoptosis rate (early and late apoptotic cells),"[6]; CL187, 50 μM",25.76%
same,proportion of G2/M-phase cells,"[7]; CL187, 10 μM",48.69%
same,proportion of G2/M-phase cells,"[7]; CL187, 20 μM",52.98%
same,proportion of G2/M-phase cells,"[7]; CL187, 50 μM",55.33%
same,IC50,[8],49 ± 10.1 µM
